Measurements as given in EP4389749A1, “SUBSTITUTED 3,7-DIHYDRO-1H-PURINE-2,6-DIONES AND USE THEREOF” (invIOs GmbH, priority 2022, dated 2024).

How the values were obtained:
CD8+ T-cells = assay: Immunostimulation assay with anti-CD3/28 stimulated T-cells, CD69 expression by flow cytometry; format: cell-based, human; details: T-cell; purified human CD4+ and CD8+ T-cells, 1 µg/ml anti-CD3, 1 µg/ml anti-CD28, 16 hours, surface FACS; read-out: EC50 CD8+
How it was run: (§1)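 Human CD4+/CD8+ T-cells purified from buffy-coat PBMCs were stimulated with 1 µg/ml anti-CD3 and 1 µg/ml anti-CD28 plus compound (0.001–30 µM) for 16 h at 37 °C. CD69 measured by flow cytometry; DMSO set minimal, CD3/28 Dynabeads maximal activation; EC50 by variable-slope fit.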

CD4+ T-cells = assay: as above; format: cell-based, human; details: T-cell; purified human CD4+ and CD8+ T-cells, 1 µg/ml anti-CD3, 1 µg/ml anti-CD28, 16 hours, surface FACS; read-out: EC50 CD4+
How it was run: as §1

SMILES | EC50 (CD8+ T-cells) [nM] | EC50 (CD4+ T-cells) [nM]
Cn1c(-c2ccc(Oc3ccc(OC(F)(F)F)cc3F)cc2)nc2c1c(=O)[nH]c(=O)n2CC(O)C(F)(F)F (stereo not drawn) [Compound 161, 8-(4-(2-fluoro-4-(trifluoromethoxy)phenoxy)phenyl)-7-methyl-3-(3,3,3-trifluoro-2-hydroxypropyl)-3,7-dihydro-1H-purine-2,6-dione] | 100 to 500 | 100 to 500
Cn1c(-c2ccc(OCc3ccc(C(F)F)cc3)c(F)c2)nc2c1c(=O)[nH]c(=O)n2CC(O)C(F)(F)F (stereo not drawn) [Compound 64, 8-(4-((4-(difluoromethyl)benzyl)oxy)-3-fluorophenyl)-7-methyl-3-(3,3,3-trifluoro-2-hydroxypropyl)-3,7-dihydro-1H-purine-2,6-dione] | 1000 to 5000 | > 5000
COc1ccc(COc2ccc(-c3nc4c(c(=O)[nH]c(=O)n4CC(C)O)n3C)cc2OC)cc1F (stereo not drawn) [Compound 126, 8-(4-((3-fluoro-4-methoxybenzyl)oxy)-3-methoxyphenyl)-3-(2-hydroxypropyl)-7-methyl-3,7-dihydro-1H-purine-2,6-dione] | 100 to 500 | 500 to 1000
COc1cc(-c2nc3c(c(=O)[nH]c(=O)n3CC(O)CF)n2C)ccc1OCc1ccc(C(F)F)cc1 (stereo not drawn) [Compound 73, 8-(4-((4-(difluoromethyl)benzyl)oxy)-3-methoxyphenyl)-3-(3-fluoro-2-hydroxypropyl)-7-methyl-3,7-dihydro-1H-purine-2,6-dione] | 500 to 1000 | 500 to 1000
Cn1c(-c2ccc(OCc3ccc(C(F)F)cc3)c(F)c2)nc2c1c(=O)[nH]c(=O)n2CC(O)CF (stereo not drawn) [Compound 63, 8-(4-((4-(difluoromethyl)benzyl)oxy)-3-fluorophenyl)-3-(3-fluoro-2-hydroxypropyl)-7-methyl-3,7-dihydro-1H-purine-2,6-dione] | 100 to 500 | 100 to 500
CC(O)Cn1c(=O)[nH]c(=O)c2c1nc(-c1ccc(Oc3ccc(OC(F)(F)F)c(Cl)c3)cc1)n2C (stereo not drawn) [Compound 194, 8-(4-(3-chloro-4-(trifluoromethoxy)phenoxy)phenyl)-3-(2-hydroxypropyl)-7-methyl-3,7-dihydro-1H-purine-2,6-dione] | 500 to 1000 | 100 to 500
COc1cc(-c2nc3c(c(=O)[nH]c(=O)n3C[C@H](C)O)n2C)ccc1OCc1ccccc1 [Compound 61, (S)-8-(4-(benzyloxy)-3-methoxyphenyl)-3-(2-hydroxypropyl)-7-methyl-3,7-dihydro-1H-purine-2,6-dione] | 500 to 1000 | 500 to 1000
COc1cc(COc2ccc(-c3nc4c(c(=O)[nH]c(=O)n4CC(C)O)n3C)cc2OC)ccc1F (stereo not drawn) [Compound 127, 8-(4-((4-fluoro-3-methoxybenzyl)oxy)-3-methoxyphenyl)-3-(2-hydroxypropyl)-7-methyl-3,7-dihydro-1H-purine-2,6-dione] | 500 to 1000 | 500 to 1000
Cn1c(-c2ccc(Oc3ccc(Cl)cc3)cc2)nc2c1c(=O)[nH]c(=O)n2CC(O)C(F)(F)F (stereo not drawn) [Compound 164, 8-(4-(4-chlorophenoxy)phenyl)-7-methyl-3-(3,3,3-trifluoro-2-hydroxypropyl)-3,7-dihydro-1H-purine-2,6-dione] | 100 to 500 | 100 to 500
COc1cc(-c2nc3c(c(=O)[nH]c(=O)n3CC(C)O)n2C)ccc1OCc1cccc2ccncc12 (stereo not drawn) [Compound 101, 3-(2-hydroxypropyl)-8-(4-(isoquinolin-8-ylmethoxy)-3-methoxyphenyl)-7-methyl-3,7-dihydro-1H-purine-2,6-dione] | 100 to 500 | 100 to 500
Cn1c(-c2ccc(OCc3ccccc3)c(OC(F)(F)F)c2)nc2c1c(=O)[nH]c(=O)n2CC(O)CO (stereo not drawn) [Compound 116, 8-(4-(benzyloxy)-3-(trifluoromethoxy)phenyl)-3-(2,3-dihydroxypropyl)-7-methyl-3,7-dihydro-1H-purine-2,6-dione] | 500 to 1000 | 500 to 1000
COc1cc(-c2nc3c(c(=O)[nH]c(=O)n3CC(C)CO)n2C)ccc1OCc1ccc(C(F)F)cc1 (stereo not drawn) [Compound 74, 8-(4-((4-(difluoromethyl)benzyl)oxy)-3-methoxyphenyl)-3-(3-hydroxy-2-methylpropyl)-7-methyl-3,7-dihydro-1H-purine-2,6-dione] | 100 to 500 | 100 to 500
Cn1c(-c2ccc(OCc3ccccc3)c(OC(F)(F)F)c2)nc2c1c(=O)[nH]c(=O)n2CC(O)CF (stereo not drawn) [Compound 117, 8-(4-(benzyloxy)-3-(trifluoromethoxy)phenyl)-3-(3-fluoro-2-hydroxypropyl)-7-methyl-3,7-dihydro-1H-purine-2,6-dione] | < 100 | < 100
CC(O)Cn1c(=O)[nH]c(=O)c2c1nc(-c1ccc(OCc3ccccc3)c(C(F)(F)F)c1)n2C (stereo not drawn) [Compound 98, 8-(4-(benzyloxy)-3-(trifluoromethyl)phenyl)-3-(2-hydroxypropyl)-7-methyl-3,7-dihydro-1H-purine-2,6-dione] | 100 to 500 | 100 to 500
COc1cc(-c2nc3c(c(=O)[nH]c(=O)n3CC(O)CO)n2C)ccc1OCc1ccccc1 (stereo not drawn) [Compound 55, 8-(4-(benzyloxy)-3-methoxyphenyl)-3-(2,3-dihydroxypropyl)-7-methyl-3,7-dihydro-1H-purine-2,6-dione] | 1000 to 5000 | 1000 to 5000
CC(O)Cn1c(=O)[nH]c(=O)c2c1nc(-c1ccc(OCc3ccc(F)c(F)c3)c(F)c1)n2C (stereo not drawn) [Compound 92, 8-(4-((3,4-difluorobenzyl)oxy)-3-fluorophenyl)-3-(2-hydroxypropyl)-7-methyl-3,7-dihydro-1H-purine-2,6-dione] | 1000 to 5000 | 1000 to 5000
CC(O)Cn1c(=O)[nH]c(=O)c2c1nc(-c1ccc(Oc3cccc(C#N)c3)cc1)n2C (stereo not drawn) [Compound 187, 3-(4-(3-(2-hydroxypropyl)-7-methyl-2,6-dioxo-2,3,6,7-tetrahydro-1H-purin-8-yl)phenoxy)benzonitrile] | 1000 to 5000 | 1000 to 5000
Cn1c(-c2ccc(OCc3ccc(C(F)F)cc3)c(F)c2)nc2c1c(=O)[nH]c(=O)n2CC(O)C(F)F (stereo not drawn) [Compound 62, 3-(3,3-difluoro-2-hydroxypropyl)-8-(4-((4-(difluoromethyl)benzyl)oxy)-3-fluorophenyl)-7-methyl-3,7-dihydro-1H-purine-2,6-dione] | 100 to 500 | 500 to 1000
COc1cc(-c2nc3c(c(=O)[nH]c(=O)n3CC(O)C(F)F)n2C)ccc1OCc1ccc(C(F)F)cc1 (stereo not drawn) [Compound 79, 3-(3,3-difluoro-2-hydroxypropyl)-8-(4-((4-(difluoromethyl)benzyl)oxy)-3-methoxyphenyl)-7-methyl-3,7-dihydro-1H-purine-2,6-dione] | 100 to 500 | 100 to 500
CC(O)Cn1c(=O)[nH]c(=O)c2c1nc(-c1ccc(Oc3ccc(OC(F)(F)F)cc3)c(OC(F)(F)F)c1)n2C (stereo not drawn) [Compound 156, 3-(2-hydroxypropyl)-7-methyl-8-(3-(trifluoromethoxy)-4-(4-(trifluoromethoxy)phenoxy)phenyl)-3,7-dihydro-1H-purine-2,6-dione] | 100 to 500 | 100 to 500
Cn1c(-c2ccc(Oc3ccc(OC(F)(F)F)c(Cl)c3)c(F)c2)nc2c1c(=O)[nH]c(=O)n2CC(O)C(F)(F)F (stereo not drawn) [Compound 166, 8-(4-(3-chloro-4-(trifluoromethoxy)phenoxy)-3-fluorophenyl)-7-methyl-3-(3,3,3-trifluoro-2-hydroxypropyl)-3,7-dihydro-1H-purine-2,6-dione] | 100 to 500 | 100 to 500
